In PubChem BioAssay AID508:

Target: S-adenosylmethionine synthase isoform type-2 (Homo sapiens) (UniProt P31153)
Assay: PubChem AID 508
Settings: recombinant MAT2A, DSF SYPRO orange Tm shift; at 10 µM; protein 2 µM; buffer 25 mM HEPES; pH 7.5; 75mM NaCl; 100uM ATPgammaS; Adenosine 5'-[gamma-thio]triphosphate tetralithium salt; hits give high values

Sequence of S-adenosylmethionine synthase isoform type-2 (Homo sapiens) (P31153 whole entry, looked up, canonical isoform): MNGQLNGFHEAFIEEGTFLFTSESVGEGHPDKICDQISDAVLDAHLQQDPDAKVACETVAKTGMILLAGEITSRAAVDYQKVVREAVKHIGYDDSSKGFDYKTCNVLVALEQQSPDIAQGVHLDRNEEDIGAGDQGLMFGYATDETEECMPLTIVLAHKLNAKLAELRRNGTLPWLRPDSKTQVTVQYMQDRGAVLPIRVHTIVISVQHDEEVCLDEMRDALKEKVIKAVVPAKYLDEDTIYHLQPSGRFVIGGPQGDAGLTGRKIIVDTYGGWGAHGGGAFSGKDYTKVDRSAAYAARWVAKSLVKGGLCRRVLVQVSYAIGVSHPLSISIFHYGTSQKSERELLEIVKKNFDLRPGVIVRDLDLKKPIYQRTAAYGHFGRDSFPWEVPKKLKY

- Tm shift: 2.1 Celsius
Compound: CSCCC(N)C(=O)O (stereo unspecified)
